# Measured values from patent publication US12109184B2, “Personalized methods of treating cancer” (CANCER RESEARCH TECHNOLOGY LIMITED, priority 2020, dated 2024).
# “Also recorded” adds a separate entry of the source.
# Experiments:
# Assay type in all cases: cell-based
# [1] = test system: MDA-MB-231, MIAPaCa-2 and PANC-1 cells; experiment: Cell counting during cysteine starvation, starvation-sensitive cell lines
# Description: (§1) The base medium formulation contained 0.2 mM L-histidine, 0.4 mM L-isoleucine, 0.4 mM L-leucine, 0.4 mM L-lysine, 0.2 mM L-phenylalanine, 0.4 mM L-threonine, 0.08 mM L-tryptophan, 0.4 mM L-valine, 0.2 mM L-arginine, 2 mM L-glutamine, 0.2 mM L-tyrosine, 0.4 mM L-alanine, 0.3 mM L-proline, 0.15 mM L-glutamic acid, 0.1 mM L-aspartic acid, 0.2 mM L-asparagine, and 0.4 mM glycine.
# (§2) DAPI-stained cell nuclei were detected via microscopy.
# (§3) AMD1 inhibitor sardomozide/SAM486A, GPX4 inhibitor RSL3, and CSE inhibitor beta-cyano-L-alanine were used.
# (§4) For experiments using spermine oxidase (SMOX) and polyamine oxidase (PAOX) inhibitors or MTOB, cells were pre-treated with stated concentrations for 16 hours in complete medium. After pre-treatment, cells were washed in PBS, and treatment was continued in complete or cysteine-free medium for stated times. After treatment was finished, cells were fixed and stained as described above. For experiments using MTA, polyamines, GPX4 and CSE inhibitors, treatment started at the same time as cysteine starvation. For experiments involving hypoxic conditions, cells were seeded in normoxic conditions and allowed to adhere for 24 hours before control and cysteine starvation medium was added and cells were immediately transferred either to a humidified cell culture incubator set to 37° C. in 20% O2 (normoxia), or a hypoxia chamber set to 37° C. in 1% O2 (hypoxia) for the stated times. Cells were fixed immediately and stained as described above.
# [2] = test system: HCT116, SW480 and MDA-MB-468 cells; experiment: Cell counting during cysteine starvation, starvation-resistant cell lines; conditions: for cysteine starvation sensitivity on polyamine supplementation: polyamine 20 μM in medium without cysteine
# Description: as §1, §2, §3, §4
# [3] = test system: MDA-MB-231, PANC-1, and MIAPaCa-2 cells; experiment: CellROX assay on live cells, starvation-sensitive cell lines; conditions: −Cys, 16 h timepoint
# Description: (§5) Cells were seeded as described above. Live cells were stained with Hoechst 33342 nuclear stain for 20 min. The medium was removed, and cells were stained in 100 μl medium containing CellTracker™ Green CMFDA Dye and Hoechst stain for 40 min. The cells were then washed with PBS, and 300 μl of the relevant experimental medium was added for 1 hour. Then, CellROX® Deep Red was spiked into the medium, and the cells were incubated for 40 min. The medium was removed, the cells were washed with PBS, and new relevant experimental medium including CellROX was added. The cells were imaged using an Operetta automated microscope platform set to 37° C. in 5% CO2 every hour for 16-24 hours. I
# [4] = test system: MTAP-deleted HCT116 cells; experiment: Cell counting during cysteine starvation, MTAP-deleted HCT116; conditions: for cell survival during cysteine starvation: SMOX inhibitor, PAOX inhibitor or MTOB supplementation
# Text: [NT] Successfully transfected cells were selected with puromycin and grown as clonal colonies. Clones were selected based initially on MTA efflux measured by liquid chromatography mass spectrometry (LC-MS). Clones with greatest MTA efflux were selected, and methylthioadenosine phosphorylase knockout (MTAP-KO) was then confirmed by western blot. MTAP-KO HCT116 cells were transfected with pCMV-Hygro-MTAP and pCMV-Hygro-negative control vector, selected using hygromycin B, and grown as clonal colonies. Clones were selected based initially on MTA efflux measured by LC-MS. Clones with low MTA efflux were selected, then MTAP re-expression was confirmed by western blot. […] DAPI-stained cell nuclei were detected via microscopy. […] For experiments using spermine oxidase (SMOX) and polyamine oxidase (PAOX) inhibitors or MTOB, cells were pre-treated with stated concentrations for 16 hours in complete medium. After pre-treatment, cells were washed in PBS, and treatment was continued in complete or cysteine-free medium for stated times. After treatment was finished, cells were fixed and stained as described above. For experiments using MTA, polyamines, GPX4 and CSE inhibitors, treatment started at the same time as cysteine starvation. For experiments involving hypoxic conditions, cells were seeded in normoxic conditions and allowed to adhere for 24 hours before control and cysteine starvation medium was added and cells were immediately transferred either to a humidified cell culture incubator set to 37° C. in 20% O2 (normoxia), or a hypoxia chamber set to 37° C. in 1% O2 (hypoxia) for the stated times. Cells were fixed immediately and stained as described above.
# [5] = test system: MTAP-expressing HCT116 cells; experiment: Cell counting during cysteine starvation, MTAP-expressing HCT116; conditions: SMOX inhibitor, PAOX inhibitor or MTOB supplementation
# Text: [NT] Successfully transfected cells were selected with puromycin and grown as clonal colonies. Clones were selected based initially on MTA efflux measured by liquid chromatography mass spectrometry (LC-MS). Clones with greatest MTA efflux were selected, and methylthioadenosine phosphorylase knockout (MTAP-KO) was then confirmed by western blot. MTAP-KO HCT116 cells were transfected with pCMV-Hygro-MTAP and pCMV-Hygro-negative control vector, selected using hygromycin B, and grown as clonal colonies. Clones were selected based initially on MTA efflux measured by LC-MS. Clones with low MTA efflux were selected, then MTAP re-expression was confirmed by western blot. […] DAPI-stained cell nuclei were detected via microscopy. For experiments using spermine oxidase (SMOX) and polyamine oxidase (PAOX) inhibitors or MTOB, cells were pre-treated with stated concentrations for 16 hours in complete medium. After pre-treatment, cells were washed in PBS, and treatment was continued in complete or cysteine-free medium for stated times. After treatment was finished, cells were fixed and stained as described above. For experiments using MTA, polyamines, GPX4 and CSE inhibitors, treatment started at the same time as cysteine starvation. For experiments involving hypoxic conditions, cells were seeded in normoxic conditions and allowed to adhere for 24 hours before control and cysteine starvation medium was added and cells were immediately transferred either to a humidified cell culture incubator set to 37° C. in 20% O2 (normoxia), or a hypoxia chamber set to 37° C. in 1% O2 (hypoxia) for the stated times. Cells were fixed immediately and stained as described above.
# cysteine starved cells = experiment: CellROX assay on live cells supplemented with polyamines; conditions: polyamine 20 μM in medium without cysteine
# Description: as §5
# [6] = test system: breast, colorectal and pancreatic cancer cell lines; experiment: Cell counting in complete or cysteine-free medium, cell lines not given; conditions: for duration of rescue from cysteine starvation: AMD1 inhibitor or MTOB supplementation
# Description: as §1, §2, §3, §4
# [7] = test system: MDA-MB-231, PANC-1, and MIAPaCa-2 cells; experiment: LC-MS analysis with labelled methionine (polyamine and TsP labelling); conditions: 20 μM sardomozide or 0.1 mM MTOB
# Description: For experiments using labelled methionine, the same basic protocol was used as described for the steady state metabolite measurements described above. Experimental media were formulated lacking methionine or serine (described above) and supplemented with the stated concentrations of ^13C5^15N1-methionine, ^13C3^15N1-serine or ^34S1-methionine. Metabolites were extracted as described above.
# Prepared samples were analyzed on an LC-MS platform consisting of an Accela™ 600 LC system and an Exactive™ mass spectrometer. A Sequant® ZIC®-HILIC column (4.6 mm×150 mm, 3.5 μm) was used to separate the metabolites with the mobile phase using A=0.1% (v/v) formic acid in water and B=0.1% (v/v) formic acid in acetonitrile. A gradient program starting at 20% of A and linearly increasing to 80% at 30 min was used followed by washing (92% of A for 5 mins) and re-equilibration (20% of A for 10 min) steps. The total run time of the method was 45 min. The LC stream was desolvated and ionized in the HESI probe. The Exactive™ mass spectrometer was operated in full scan mode over a mass range of 70-1,200 m/z at a resolution of 50,000 with polarity switching. The LC-MS raw data was converted into mzML files by using ProteoWizard and imported to MZMine 2.10 for peak extraction and sample alignment. An in-house database including all possible ^13C and ^15N isotopic m/z values of the relevant metabolites was used for the assignment of LCMS signals. Finally the peak areas were used for comparative quantification.
Structure (SMILES),cell survival during cysteine starvation [4],impact on cell survival during cysteine starvation [5],cysteine starvation sensitivity on polyamine supplementation [2],ROS levels (CellROX deep red) (cysteine starved cells),duration of rescue from cysteine starvation [6],levels of TsP intermediates [7],polyamine synthesis (dc-SAM and polyamine labelling) [7],other results
C=C=CCNCCCCNCC=C=C [MDL 72527],rescued cell survival,little impact,–,–,–,–,–,"cell death during cysteine starvation ([1]; SMOX inhibitor 50 μM or PAOX inhibitor 10, 40, 80 μM, 16 h pre-treatment then −Cys): prevented cell death; cell survival and growth under polyamine treatment concurrent with cysteine starvation ([2]; SMOX and PAOX inhibitors with spermidine or spermine, −Cys): restored HCT116, SW480, and MDA-MB-468 cell survival and growth; advantage during cysteine starvation ([2]; SMOX or PAOX inhibitor, 16 h pre-treatment then −Cys): little or no additional advantage; ROS levels (CellROX staining intensity) ([3]; 50 μM SMOX inhibitor): allowed cells to maintain lower ROS levels"
NCCCCNCCCN [spermidine],–,–,dramatic impact; also recorded: dramatically sensitized cells to cysteine starvation,rapid increase in ROS levels; also recorded: increased cellular ROS levels,–,–,–,–
NCCCNCCCCNCCCN [spermine],–,–,dramatic impact; also recorded: dramatically sensitized cells to cysteine starvation,rapid increase in ROS levels; also recorded: increased cellular ROS levels,–,–,–,–
"CSCCC(=O)C(=O)O [MTOB, 4-methylthio-2-oxobutanoic acid]",rescued cell survival,little impact,–,–,temporary,did not appreciably increase,marked inhibition of polyamine synthesis,"rescue from cysteine starvation ([6]; 0.1 mM MTOB 16 h pre-treatment, then −Cys with MTOB 32 h): rescued cells from cysteine starvation"
N=C(N)N/N=C1\CCc2c(C(=N)N)cccc21 [sardomozide],–,–,–,–,temporary,did not appreciably increase,marked inhibition of polyamine synthesis,cell death in response to cysteine starvation ([1]; AMD1 inhibitor pre-treatment 16 h): prevented cell death; ROS levels (CellROX staining intensity) ([3]; 20 μM AMD1 inhibitor): diminished ROS levels; cell survival in response to cysteine starvation ([4]; AMD1 inhibitor): restored cell survival
